This is an account of results in paper PMC8286840, “Identifying SARS-CoV-2 antiviral compounds by screening for small molecule inhibitors of Nsp3 papain-like protease” (Biochemical Journal, 2021).

Assay [1] concerns the target T1, SARS-CoV-2 PLpro (nsp3 1564–1878) (Severe acute respiratory syndrome coronavirus 2, UniProt P0DTD1). Briefly: biochemical. Set-up: FRET-quenched peptide (Pro3) cleavage by PLpro, 10 min pre-incubation, slope over 20 min, normalised to no-compound control. The settings on record: low concentration screen, read-out: % of control remaining.
Assay [2] concerns the target T1, SARS-CoV-2 PLpro (nsp3 1564–1878). Briefly: biochemical. Set-up: FRET-quenched peptide (Pro3) cleavage by PLpro, 10 min pre-incubation, slope over 20 min, normalised to no-compound control. The settings on record: high concentration screen, read-out: % of control remaining.

Structures can show the parent of a compound that is named as a salt. Where two headings read alike, the source gives them in different places. Where a SMILES comes first, the peptide text is derived from it. The star is where a group is joined. Cbz = O=C(OCc1ccccc1)*; CH2F = FC*

Turning to `CC[C@H](C)[C@H](NC(=O)OCc1ccccc1)C(=O)N[C@@H](CCC(=O)OC)C(=O)N[C@H](C(=O)N[C@@H](CC(=O)OC)C(=O)CF)[C@@H](C)O` [Z-IETD-FMK] (Cbz-IE(OMe)TD(OMe)-CH2F), in assay [1] (Well no.=8262), the remaining activity at 1.25 µM stood at 98.1%. Besides, the remaining activity at 3.75 µM in assay [2] (Well no.=8262) is 96.2%.

`O=C(N[C@@H](Cc1ccccc1)C(=O)CCl)OCc1ccccc1` [Z-L-Phe chloromethyl ketone]: the remaining activity at 1.25 µM in assay [1] (Well no.=238) came to 100%. Besides, the remaining activity at 3.75 µM in assay [2] (Well no.=238) stood at 101%.

As to `COC(=O)C[C@H](NC(=O)[C@H](C)NC(=O)[C@@H](NC(=O)OCc1ccccc1)C(C)C)C(=O)CF` [Z-VAD(OMe)-FMK] (Cbz-Val-Ala-Asp(OMe)-CH2F), the values for the remaining activity at 1.25 µM in assay [1] (Well no.=7116) and in assay [1] (Well no.=8598) were 101% and 100%, respectively. Moreover, the remaining activity at 3.75 µM is 94.5% in assay [2] (Well no.=7116) and 100% in assay [2] (Well no.=8598).

Consider `Cc1cc(C)nc(NS(=O)(=O)c2ccc(NC(=S)NC(=O)COc3ccc(Br)cc3Cl)cc2)n1` [ZCL278], for which the remaining activity at 1.25 µM is 98.2% in assay [1] (Well no.=7884) and 102% in assay [1] (Well no.=8389). Further, the remaining activity at 3.75 µM turned out to be 99.2% in assay [2] (Well no.=7884) and 96.3% in assay [2] (Well no.=8389).

`OCCOCCN1CCN(Cc2cccc(Oc3ccccc3)c2)CC1` [ZK756326 (dihydrochloride)]: the remaining activity at 1.25 µM in assay [1] (Well no.=6178) amounted to 99.6%; in assay [1] (Well no.=8117) it was 104%. The remaining activity at 3.75 µM in assay [2] (Well no.=6178) stood at 101%.

Regarding `Cc1cc(N=Nc2ccc3c(c2)CCC(=O)N3)c(N)cc1O` [ZL0420], the remaining activity at 1.25 µM in assay [1] (Well no.=8468) is 103%. For the same compound, the remaining activity at 3.75 µM in assay [2] (Well no.=8468) was 95.2%.

For the compound `CC(C)N(CCC(=O)c1ccc2ccccc2c1)Cc1ccccc1` [ZM39923 (hydrochloride)], the remaining activity at 1.25 µM in assay [1] (Well no.=8170) amounted to 104%. Further, the remaining activity at 3.75 µM in assay [2] (Well no.=8170) was 98%.

With `Nc1nc(NCCc2ccc(O)cc2)nc2nc(-c3ccco3)nn12` [ZM241385], the values for the remaining activity at 1.25 µM in assay [1] (Well no.=7042) and in assay [1] (Well no.=8411) were 106% and 90.6%, respectively. The remaining activity at 3.75 µM in assay [2] (Well no.=7042) was 104%; in assay [2] (Well no.=8411), 88.3%.

For `CC(C)N(CCC(=O)c1ccc2ccccc2c1)Cc1ccccc1` [ZM 39923 hydrochloride - 3-Benzylisopropylamino-1-naphthalen-2-yl-propan-1-one hydrochloride], the remaining activity at 1.25 µM in assay [1] (Well no.=2390) was found to be 96.3%. Moreover, the remaining activity at 3.75 µM in assay [2] (Well no.=2390) was 98.1%.

For the compound `Cc1cc(F)c(Nc2ncnc3cc(OCc4ccccc4)ccc23)cc1O` [ZM 323881 hydrochloride - 5-((7-Benzyloxyquinazolin-4-yl)amino)-4-fluoro-2-methylphenol hydrochloride], in assay [1] (Well no.=2538), the remaining activity at 1.25 µM was determined as 91.5%. In addition, the remaining activity at 3.75 µM in assay [2] (Well no.=2538) was 92%.

For the compound `Cc1ccc(NC(=O)c2cccc(N(C)C)c2)cc1NC(=O)c1ccc(O)cc1` [ZM 336372], the remaining activity at 1.25 µM in assay [1] (Well no.=5878) stood at 103%. The remaining activity at 3.75 µM in assay [2] (Well no.=5878) was determined as 102%.

For the compound `COc1cc2c(Nc3ccc(NC(=O)c4ccccc4)cc3)ncnc2cc1OCCCN1CCOCC1` [ZM 447439 - N-[4-[[6-Methoxy-7-[3-(4-morpholinyl)propoxy]-4-quinazolinyl]amino]phenyl]benzamide], the remaining activity at 1.25 µM in assay [1] (Well no.=2534) is 97.3%. The remaining activity at 3.75 µM in assay [2] (Well no.=2534) came to 96.9%.

`C=CC(=O)c1ccc2ccccc2c1` [ZM 449829 - 1-(2-Naphthalenyl)-2-propen-1-one]: in assay [1] (Well no.=2388), the remaining activity at 1.25 µM worked out at 105%. Moreover, in assay [2] (Well no.=2388), the remaining activity at 3.75 µM was determined as 106%.

As for `FC(F)c1nc2ccccc2n1-c1nc(N2CCOCC2)nc(N2CCOCC2)n1` [ZSTK474], in assay [1] (Well no.=4623), the remaining activity at 1.25 µM was found to be 102%. In addition, in assay [2] (Well no.=4623), the remaining activity at 3.75 µM was 106%.

With `COc1cc(C(=O)NS(=O)(=O)c2ccccc2C)ccc1Cc1cn(C)c2ccc(NC(=O)OC3CCCC3)cc12` [Zafirlukast], the values for the remaining activity at 1.25 µM in assay [1] (Well no.=1762) and in assay [1] (Well no.=8579) were 99.5% and 102%, respectively. In assay [2] (Well no.=8579), the remaining activity at 3.75 µM amounted to 101%.

`Nc1ccn([C@H]2CC[C@@H](CO)O2)c(=O)n1` [Zalcitabine]: in assay [1] (Well no.=7856), the remaining activity at 1.25 µM was found to be 92.9%. In assay [2] (Well no.=7856), the remaining activity at 3.75 µM turned out to be 98.9%.

`CC(C(=O)O)c1ccc2c(c1)CC(=O)c1ccccc1S2` (centres unmarked) [Zaltoprofen]: the remaining activity at 1.25 µM in assay [1] (Well no.=4879) came to 96.8%. Further, the remaining activity at 3.75 µM in assay [2] (Well no.=4879) amounted to 97.2%.

On to `CC(=O)N[C@H]1[C@H]([C@H](O)[C@H](O)CO)OC(C(=O)O)=C[C@@H]1NC(=N)N` [Zanamivir], for which the remaining activity at 1.25 µM in assay [1] (Well no.=5883) was 103%. The remaining activity at 3.75 µM in assay [2] (Well no.=5883) was 104%.

Regarding `CCCOc1ccccc1-c1nc2[nH]nnc2c(=O)[nH]1` [Zaprinast], the remaining activity at 1.25 µM was determined as 99.6% in assay [1] (Well no.=1342) and 92% in assay [1] (Well no.=2188). Also, the results for the remaining activity at 3.75 µM in assay [2] (Well no.=1342) and in assay [2] (Well no.=2188) were 101% and 95.6%, respectively.

Turning to `COc1cc(-c2ccc(=O)[nH]n2)ccc1OC(F)F` [Zardaverine], the remaining activity at 1.25 µM in assay [1] (Well no.=1438) worked out at 95.5%; in assay [1] (Well no.=2190) it was 97.5%. For the same compound, the remaining activity at 3.75 µM in assay [2] (Well no.=1438) came out at 94.9%; in assay [2] (Well no.=2190), 98.2%.

Turning to `O=C(O)[C@H](Cc1ccc(Nc2nccc3ccncc23)cc1)NC1=C(Br)C(=O)C12CCCCC2` [Zaurategrast], the remaining activity at 1.25 µM in assay [1] (Well no.=7838) was 98.1%. The remaining activity at 3.75 µM in assay [2] (Well no.=7838) amounted to 99.7%.

Take `C[C@H]1CCCC(=O)CCC/C=C/c2cc(O)cc(O)c2C(=O)O1` [Zearalenone]: in assay [1] (Well no.=3148), the remaining activity at 1.25 µM worked out at 97.2%. The remaining activity at 3.75 µM in assay [2] (Well no.=3148) was 97.8%.

With `O=c1ncccn1[C@@H]1O[C@H](CO)[C@@H](O)[C@H]1O` [Zebularine], the remaining activity at 1.25 µM in assay [1] (Well no.=7818) stood at 97%. Also, the remaining activity at 3.75 µM in assay [2] (Well no.=7818) came out at 96.3%.

`C/C1=C\CC(C)(C)/C=C/C(=O)/C(C)=C/CC1` [Zerumbone]: the remaining activity at 1.25 µM in assay [1] (Well no.=3549) turned out to be 96.6%. Moreover, the remaining activity at 3.75 µM in assay [2] (Well no.=3549) amounted to 98.6%.

For the compound `COc1nc(C)cnc1NS(=O)(=O)c1cccnc1-c1ccc(-c2nnco2)cc1` [Zibotentan], the remaining activity at 1.25 µM in assay [1] (Well no.=6318) came to 98.5%. Besides, in assay [2] (Well no.=6318), the remaining activity at 3.75 µM was 98.2%.

In the case of `CC(c1cc2ccccc2s1)N(O)C(N)=O` (centres unmarked) [Zileuton], the remaining activity at 1.25 µM in assay [1] (Well no.=1764) stood at 102%. Also, the remaining activity at 3.75 µM in assay [2] (Well no.=1764) worked out at 100%.

In the case of `CN(C)C/C=C(/c1ccc(Br)cc1)c1cccnc1` [Zimelidine dihydrochloride], the remaining activity at 1.25 µM in assay [1] (Well no.=1534) stood at 96.1%. Also, in assay [2] (Well no.=1534), the remaining activity at 3.75 µM is 96%.

Consider `O=C1Cc2cc(CCN3CCN(c4nsc5ccccc45)CC3)c(Cl)cc2N1` [Ziprasidone (hydrochloride monohydrate)], for which the remaining activity at 1.25 µM in assay [1] (Well no.=6563) came to 92.6%. Moreover, the remaining activity at 3.75 µM in assay [2] (Well no.=6563) was found to be 90.8%.
